Key:
[1] = test system: thiobarbituric acid-reactive substances (TBARS) in rat brain homogenate; experiment: Antioxidative activity, method 1: TBARS level in oxidised rat brain homogenate; format: biochemical; conditions: ethanol solutions, 100 mM of each substance, 37° C., 27 hours
Description: In method 1 of measuring antioxidative activity, a level of thiobarbituric acid-reactive substances (TBARS) generated by an oxidative reaction was determined (Buege J. A. and Aust S. D., Methods Enzymol., 1978, 52: 302).
In this method, rat brain was homogenized in about 2.5 times by weight of saline to prepare a brain homogenate. The brain homogenate (80 μl), an ethanol solution (30 μl) containing antioxidative substance, Eagle's MEM medium (120 μl) , CuSO4 (240 μM), and FeCl3 (240 μM) were mixed and the mixture was maintained at 37° C. for 27 hours. Then, a 20% trichloroacetic acid (TCA) solution (0.9 ml) and a 0.67% thiobarbituric acid (TBA) solution (0.9 ml) were added and the resulting mixture was heated at 100° C. for 30 minutes. After cooling by water, the mixture was centrifuged to separate a supernatant. The absorbance of the supernatant was measured at 532 nm. […] The antioxidative activity (%) of an antioxidative substance was determined by the ratio of a decrease of the TBARS content in the presence of an antioxidative substance to the TBARS content in the absence of an antioxidative substance.
According to the above-mentioned methods, the antioxidative activity (A) in combination of reduced coenzyme Q10 and a carotenoid, the antioxidative activity (B) of reduced coenzyme Q10 used alone, and the antioxidative activity (C) of the carotenoid used alone are measured. […]

[2] = Antioxidative activity, method 2: DPPH spectrometry; conditions: ethanol solutions, 25 μM of each substance, after 20 minutes, calibrated with catechin
Description: Since the TBARS is red, method 1 cannot accurately determine absorbance of some carotenoids. Therefore, spectrometry using 1,1-dipehnyl-2-picrylhydrazyl (DPPH) was also conducted (K. Shinohara and T. Suzuki, Shokuhin-Kinou-Kenkyuho (Methods for Functional Food Analysis), 2000, 218).
In method 2, 12 ml of a 200 mM MES buffer (pH 6.0) was added to 12 ml of a 400 μM DPPH ethanol solution. Then, 12 ml ethanol was added to prepare a mixture. An ethanol solution (0.6 ml) containing an antioxidative substance was added to the mixture (0.9 ml). After 20 minutes, the absorbance of the mixture was measured at 510 nm. In this measuring system, the absorbance decreases as the antioxidative activity of the antioxidative substance increases. The antioxidative activity of the antioxidative substance was quantitatively determined using a calibration curve prepared with catechin. Namely, the minimum absorbance when DPPH radicals were completely consumed with an excess amount of catechin corresponded to 100% antioxidative activity. The maximum absorbance when DPPH radicals were not consumed at all corresponded to 0% antioxidative activity. The calibration curve was drawn from these 2 points and the antioxidative activity (%) was determined from the absorbance of the antioxidative substance.
According to the above-mentioned methods, the antioxidative activity (A) in combination of reduced coenzyme Q10 and a carotenoid, the antioxidative activity (B) of reduced coenzyme Q10 used alone, and the antioxidative activity (C) of the carotenoid used alone are measured. The antioxidative activity in combination of reduced coenzyme Q10 and the carotenoid is compared with the sum (additive effect) of the antioxidative activity of reduced coenzyme Q10 alone and the antioxidative activity of the carotenoid alone in order to investigate the synergistic effect.
In the present invention, both the following two formulae were used to correctly determine if the use in combination of reduced coenzyme Q10 and a carotenoid show synergistic effect. […]

| SMILES | Antioxidative Activity (%) (Inhibition Ratio of Oxidation) [1] | Antioxidative Activity (%) (Inhibition Ratio of Oxidation) [2] |
| --- | --- | --- |
| CC1=C(/C=C/C(C)=C/C=C/C(C)=C/C=C/C=C(C)/C=C/C=C(C)/C=C/C2=C(C)C(=O)[C@@H](O)CC2(C)C)C(C)(C)C[C@H](O)C1=O [Astaxanthin, astaxanthin] | 21.6 | – |
| CC(C)=CCC/C(C)=C/C=C/C(C)=C/C=C/C(C)=C/C=C/C=C(C)/C=C/C=C(C)/C=C/C=C(\C)CCC=C(C)C [Lycopene, lycopene] | – | 0.9 |
| COc1c(O)c(C)c(C/C=C(\C)CC/C=C(\C)CC/C=C(\C)CC/C=C(\C)CC/C=C(\C)CC/C=C(\C)CC/C=C(\C)CC/C=C(\C)CC/C=C(\C)CCC=C(C)C)c(O)c1OC [Reduced coenzyme Q10, reduced coenzyme Q10] | 10.9 | 10.3 |
| CC1=C(/C=C/C(C)=C/C=C/C(C)=C/C=C/C=C(C)/C=C/C=C(C)/C=C/C2=C(C)CCCC2(C)C)C(C)(C)CCC1 [β-Carotene, β-carotene] | – | 8.8 |

Source: patent US20050226858A1, “Compositions containing reduced coenzyme Q10 and carotenoid” (KANEKA CORPORATION, priority 2004, published 2005)
